In patent publication US3954227A, “Pharmaceutical compositions containing 1-(2',3'-dimethylphenoxy)-3-tert. butylamino-2-propanol or pharmaceutically acceptable salt thereof for treating or preventing coronary disorders” (Teikoku Hormone Mfg. Co., Ltd., priority 1969, dated 1976):
Entries after “also recorded” stand apart in the source; their conditions may differ. Read-outs that look alike come from different tables or passages of the source.

How the values were obtained:
mouse [1] = test: Behavior analysis, mouse (simplified Irwin's multidimensional method); details: 4 hours observation
From the text: (§1) The effects of chemicals on the behavior of mouse was examined by a simplified method of Irwin's multidimensional behavior analysis method.

[2] = oral; cited from earlier work
rat [3] = test: Behavior analysis, rat; details: 4 hours observation
Experimental: (§2) The chemical to be tested was administered orally, and observations of the behaviors of the rats were carried out for 4 hours after administration of the chemical.
One group consisted of three rats.

angina pectoris patients = test: Clinical test: bicycle ergometer exercise test in angina pectoris patients, double blind cross over; assay type: in vivo, human; design: Change in heart rate b)-a): unit not given here; details: for Change in heart rate b)-a) / Exercise time / a) Heart rate before exercise / b) Heart rate after exercise: compound A 5 mg twice daily, PROPRANOLOL 40 mg × 2, third day; for b) Heart rate after exercise: in beats/min (unit assumed)
Experimental: A test was then conducted on the third day 3 hours after the first administration. […] The test was carried out by the double blind method with a cross over test having a rest period of 10 days. The test method consisted of an exercise test utilizing a bicycle ergometer. After measuring the heart rates of the patients before starting the test, the patients were made to pedal the bicycle ergometer until they were seized with an attack of anginal pain, the effectiveness of the chemicals being judged by the time up to the attack and the heart rate at that time.

[4] = in vivo
rat [5] = test: Degree of safety (ratio of side reaction or lethal dosage to effective dosage), rat; details: in vivo, po
mouse [6] = details: in vivo, 240 min
From the text: as §1

rat [7] = details: in vivo, 240 min
Experimental: as §2
One group consisted of three rats.

[8] = test system: beta-adrenergic (heart rate increase due to ISOPROTERENOL); test: Beta-adrenergic blocking activity in the case of intravenous injection, rat (antagonism to heart rate increase due to ISOPROTERENOL); assay type: in vivo, rat (Wistar)
Experimental: 1. Beta-adrenergic blocking activity in the case of intravenous injection (Antagonism to heart rate increase due to ISOPROTERENOL)
a. Male rats of Wistar strain weighing ca. 300 grams were anesthetized with PENTOBARBITAL-Na (60 mg/kg i.p.), after which they are secured in a supine position. The electrocardiogram was registered in the second lead, on a polygraph. ISOPROTERENOL (0.1 μg/kg) was administered through the left femoral vein at 7-minute intervals.
The heart rate increase for the first two times was averaged and used as control.
The antagonistic chemical was intravenously injected from the third time the ISOPROTERENOL was administered, the administration being performed cumulatively and sequentially in the amounts of respectively 6.25, 25, 100 . . . μg/kg invariably at a point 2 minutes before each administration of ISOPROTERENOL until the effects thereof practically disappeared.

heart rate [9] = test: Heart rate drop at the dosage required for manifestation of beta-adrenergic blocking activity, dog; assay type: in vivo
heart rate [10] = test: Effect on heart rate (general statements); assay type: in vivo
dog [11] = test: Degree of safety (ratio of side reaction or lethal dosage to effective dosage), dog; details: in vivo, po
heart rate [12] = test: Heart rate drop at the dosage required for manifestation of beta-adrenergic blocking activity, rat; assay type: in vivo
dog [13] = details: orally
rat [14] = details: orally
beta-adrenergic = test: Beta-adrenergic blocking activity of metabolites (Table 2); assay type: in vivo; details: for Beta-adrenergic blocking activity compared with PROPRANOLOL, in words: in vivo
heart rate [15] = test: Change in heart rate at the dosage required for manifestation of the beta-adrenergic blocking activity (Table 2); assay type: in vivo

CC(C)NCC(O)COc1cccc2ccccc12 (stereo not shown) [PROPRANOLOL, 1-naphthoxy-3-isopropylamino-2-propanol, reference compound]
Dose at which effects appeared from the standpoints of behavior analysis (PO) (mouse [1]): 100 mg
Metabolized when orally administered [2]: 90%
Dose at which effects appeared from the standpoints of behavior analysis (PO) (rat [3]): 25 mg
Change in heart rate b)-a) (angina pectoris patients; Case No. 1): 35
Exercise time (angina pectoris patients; Case No. 1): 134 s
a) Heart rate before exercise (angina pectoris patients; Case No. 1): 74 beats/min
b) Heart rate after exercise (angina pectoris patients; Case No. 1): 109
Change in heart rate b)-a) (angina pectoris patients; Case No. 2): 27
Exercise time (angina pectoris patients; Case No. 2): 146 s
a) Heart rate before exercise (angina pectoris patients; Case No. 2): 69 beats/min
b) Heart rate after exercise (angina pectoris patients; Case No. 2): 96
Change in heart rate b)-a) (angina pectoris patients; Case No. 3): 27
Exercise time (angina pectoris patients; Case No. 3): 102 s
a) Heart rate before exercise (angina pectoris patients; Case No. 3): 75 beats/min
b) Heart rate after exercise (angina pectoris patients; Case No. 3): 102
Change in heart rate b)-a) (angina pectoris patients; Mean of 3 cases): 29.7
Exercise time (angina pectoris patients; Mean of 3 cases): 127.3 s
a) Heart rate before exercise (angina pectoris patients; Mean of 3 cases): 72.7 beats/min
b) Heart rate after exercise (angina pectoris patients; Mean of 3 cases): 102.3
Suppression of the heart rate vs placebo, in words (angina pectoris patients; as compared with the placebo): marked suppression of the heart rate

Cc1cccc(OCC(O)CNC(C)(C)C)c1C (stereo not shown) [compound A, 1-(2',3'-dimethylphenoxy)-3-tert. butylamino-2-propanol]
Degree of safety compared with the other similar compounds [4]: 7-20 times
Degree of safety, times that of PROPRANOLOL (rat [5]): about 14 times
Dose at which effects appeared from the standpoints of behavior analysis (PO) (mouse [6]): 200 mg
Dose at which effects appeared from the standpoints of behavior analysis (PO) (rat [7]): 50 mg
Relative effectiveness iv (beta-adrenergic blocking activity, PROPRANOLOL = 1.0) [8]: 2
Heart rate % drop at the dosage required for manifestation of beta-adrenergic blocking activity [ED50] (heart rate [9]; PO): 2%
Heart rate drop at the dosage required for manifestation of beta-adrenergic blocking activity [ED50] (heart rate [9]; PO): 3 No/min.
Heart rate % drop at the dosage required for manifestation of beta-adrenergic blocking activity [ED50] (heart rate [9]; iv): 16%
Heart rate drop at the dosage required for manifestation of beta-adrenergic blocking activity [ED50] (heart rate [9]; iv): 23 No/min.
Effect on heart rate, in words (heart rate [10]; injection): high decrease in heart rate; also recorded: a drop in heart rate likewise takes place
Effect on heart rate, in words (heart rate [10]; oral / intestinal absorption route): the normal heart rate is hardly affected at all; also recorded: practically no change in heart rate; also recorded: without hardly any effect on the heart rate
Degree of safety, times that of PROPRANOLOL (dog [11]): more than 16 times
Heart rate % drop at the dosage required for manifestation of beta-adrenergic blocking activity [ED50] (heart rate [12]; PO): 4%
Heart rate drop at the dosage required for manifestation of beta-adrenergic blocking activity [ED50] (heart rate [12]; PO): 15 No/min.
Heart rate % drop at the dosage required for manifestation of beta-adrenergic blocking activity [ED50] (heart rate [12]; iv): 15%
Heart rate drop at the dosage required for manifestation of beta-adrenergic blocking activity [ED50] (heart rate [12]; iv): 55 No/min.
LD50 (dog [13]): 300 mg
LD50 (rat [14]): 580 mg
Change in heart rate b)-a) (angina pectoris patients; Case No. 1): 17
Exercise time (angina pectoris patients; Case No. 1): 187 s
a) Heart rate before exercise (angina pectoris patients; Case No. 1): 81 beats/min
b) Heart rate after exercise (angina pectoris patients; Case No. 1): 98
Change in heart rate b)-a) (angina pectoris patients; Case No. 2): 20
Exercise time (angina pectoris patients; Case No. 2): 203 s
a) Heart rate before exercise (angina pectoris patients; Case No. 2): 76 beats/min
b) Heart rate after exercise (angina pectoris patients; Case No. 2): 96
Change in heart rate b)-a) (angina pectoris patients; Case No. 3): 19
Exercise time (angina pectoris patients; Case No. 3): 144 s
a) Heart rate before exercise (angina pectoris patients; Case No. 3): 84 beats/min
b) Heart rate after exercise (angina pectoris patients; Case No. 3): 103
Change in heart rate b)-a) (angina pectoris patients; Mean of 3 cases): 18.7
Exercise time (angina pectoris patients; Mean of 3 cases): 178.0 s
a) Heart rate before exercise (angina pectoris patients; Mean of 3 cases): 80.3 beats/min
b) Heart rate after exercise (angina pectoris patients; Mean of 3 cases): 99.0
Exercise time up to attack with anginal pains vs placebo, in words (angina pectoris patients; as compared with the placebo): increases the exercise time up to the time the attack with anginal pains takes place
Increase in the heart rate due to the exercise vs placebo, in words (angina pectoris patients; as compared with the placebo): suppresses the increase in the heart rate due to the exercise
Suppression of the heart rate vs placebo, in words (angina pectoris patients; as compared with the placebo): practically no suppression of the heart rate
Effectiveness compared with PROPRANOLOL, in words (angina pectoris patients; human, in vivo): far greater than that of PROPRANOLOL

Cc1c(O)ccc(OCC(O)CNC(C)(C)C)c1C (stereo not shown) [compound B]
Relative beta-adrenergic blocking effectiveness as compared to PROPRANOLOL (beta-adrenergic; i.v.): 5.5
Beta-adrenergic blocking activity compared with PROPRANOLOL, in words (beta-adrenergic): higher beta-adrenergic blocking activity than PROPRANOLOL
Relative beta-adrenergic blocking effectiveness as compared to PROPRANOLOL (beta-adrenergic; p.o.): 2.5
Action of suppressing the heart rate compared with PROPRANOLOL, in words (heart rate [15]; in vivo): lower action of suppressing the heart rate and lesser side reactions
Change in heart rate at the dosage required for manifestation of the beta-adrenergic blocking activity (heart rate [15]; in vivo): +10 No./min.
Change in heart rate, % increase, at the dosage required for manifestation of the beta-adrenergic blocking activity (heart rate [15]; increase): 3%
Change in heart rate by injection, in words (heart rate [15]): small

Cc1c(CO)cccc1OCC(O)CNC(C)(C)C (stereo not shown) [compound C]
Relative beta-adrenergic blocking effectiveness as compared to PROPRANOLOL (beta-adrenergic; i.v.): 4.5
Beta-adrenergic blocking activity compared with PROPRANOLOL, in words (beta-adrenergic): higher beta-adrenergic blocking activity than PROPRANOLOL
Relative beta-adrenergic blocking effectiveness as compared to PROPRANOLOL (beta-adrenergic; p.o.): 4.0
Action of suppressing the heart rate compared with PROPRANOLOL, in words (heart rate [15]; in vivo): lower action of suppressing the heart rate and lesser side reactions
Change in heart rate by injection, in words (heart rate [15]): small
